Organism: Rattus norvegicus
Test: DrugMatrix - Regimen: Daily Repeat
Format: toxicity, organism-based, Sprague-Dawley
Design: regimen Daily Repeat, gender Male, age 6-8 weeks
Details: in vivo, po, 90 mg/kg, route oral GAVAGE, dose level Low, vehicle 100 % WATER; for ALANINE AMINOTRANSFERASE / ALBUMIN / ALKALINE PHOSPHATASE / ASPARTATE AMINOTRANSFERASE / BLOOD UREA NITROGEN / CARBON DIOXIDE / CHLORIDE / CHOLESTEROL / CREATINE PHOSPHOKINASE / CREATININE / LACTATE DEHYDROGENASE / LIPASE / PHOSPHORUS / POTASSIUM / SODIUM / TOTAL BILIRUBIN / TOTAL PROTEIN / URIC ACID: tissue Plasma
[1] = 120 h, tissue Blood, time 5 day

CC(NC(C)(C)C)C(=O)c1cccc(Cl)c1 (stereo not drawn) [BUPROPION]
ABSOLUTE BASOPHIL (72 h, tissue Blood, time 3 day): 0 CELLS/uL | ABSOLUTE EOSINOPHIL (72 h, tissue Blood, time 3 day): 0 CELLS/uL | ABSOLUTE LYMPHOCYTE (72 h, tissue Blood, time 3 day): 10359.67 CELLS/uL | ABSOLUTE MONOCYTE (72 h, tissue Blood, time 3 day): 103.67 CELLS/uL | ABSOLUTE SEGMENTED NEUTROPHIL (72 h, tissue Blood, time 3 day): 603.33 CELLS/uL | BASOPHIL (72 h, tissue Blood, time 3 day): 0% | EOSINOPHIL (72 h, tissue Blood, time 3 day): 0% | ERYTHROCYTE COUNT (72 h, tissue Blood, time 3 day): 5.5 x10E6/uL | HEMATOCRIT (72 h, tissue Blood, time 3 day): 35.63% | HEMOGLOBIN (72 h, tissue Blood, time 3 day): 13.4 G/DL | LEUKOCYTE COUNT (72 h, tissue Blood, time 3 day): 11.07 x10E3/uL | LYMPHOCYTE (72 h, tissue Blood, time 3 day): 93.67% | MEAN CORPUSCULAR HEMOGLOBIN (72 h, tissue Blood, time 3 day): 24.4 pg | MEAN CORPUSCULAR HEMOGLOBIN CONCENTRATION (72 h, tissue Blood, time 3 day): 37.63 G/DL | MEAN CORPUSCULAR VOLUME (72 h, tissue Blood, time 3 day): 64.83 fL | MONOCYTE (72 h, tissue Blood, time 3 day): 1% | NEUTROPHIL (72 h, tissue Blood, time 3 day): 5.33% | NUCLEATED RED BLOOD CELLS (72 h, tissue Blood, time 3 day): 0 /100WBC | PLATELET COUNT (72 h, tissue Blood, time 3 day): 1176 x10E3/uL | ALANINE AMINOTRANSFERASE (72 h, time 3 day): 40 u/L | ALBUMIN (72 h, time 3 day): 4.5 G/DL | ALKALINE PHOSPHATASE (72 h, time 3 day): 417.67 u/L | ASPARTATE AMINOTRANSFERASE (72 h, time 3 day): 84.67 u/L | BLOOD UREA NITROGEN (72 h, time 3 day): 16.33 mg/dL | CARBON DIOXIDE (72 h, time 3 day): 31 mmol/L | CHLORIDE (72 h, time 3 day): 99.33 MEQ/L | CHOLESTEROL (72 h, time 3 day): 95 mg/dL | CREATINE PHOSPHOKINASE (72 h, time 3 day): 325 u/L | CREATININE (72 h, time 3 day): 0.19 mg/dL | LACTATE DEHYDROGENASE (72 h, time 3 day): 154.67 u/L | LIPASE (72 h, time 3 day): 9 u/L | PHOSPHORUS (72 h, time 3 day): 10.93 mg/dL | POTASSIUM (72 h, time 3 day): 6.49 MEQ/L | SODIUM (72 h, time 3 day): 143.13 MEQ/L | TOTAL BILIRUBIN (72 h, time 3 day): 0.17 mg/dL | TOTAL PROTEIN (72 h, time 3 day): 6.53 G/DL | URIC ACID (72 h, time 3 day): 0.73 mg/dL | ABSOLUTE BASOPHIL [1]: 0 CELLS/uL | ABSOLUTE EOSINOPHIL [1]: 55.33 CELLS/uL | ABSOLUTE LYMPHOCYTE [1]: 14977 CELLS/uL | ABSOLUTE MONOCYTE [1]: 411.67 CELLS/uL | ABSOLUTE SEGMENTED NEUTROPHIL [1]: 2222.67 CELLS/uL | BASOPHIL [1]: 0% | EOSINOPHIL [1]: 0.33% | ERYTHROCYTE COUNT [1]: 5.73 x10E6/uL | HEMATOCRIT [1]: 37.5% | LEUKOCYTE COUNT [1]: 17.67 x10E3/uL | LYMPHOCYTE [1]: 86.67% | MEAN CORPUSCULAR HEMOGLOBIN [1]: 24.83 pg | MEAN CORPUSCULAR HEMOGLOBIN CONCENTRATION [1]: 37.83 G/DL | MEAN CORPUSCULAR VOLUME [1]: 65.57 fL | MONOCYTE [1]: 2% | NEUTROPHIL [1]: 11% | NUCLEATED RED BLOOD CELLS [1]: 0 /100WBC | PLATELET COUNT [1]: 1410.67 x10E3/uL | ALANINE AMINOTRANSFERASE (120 h, time 5 day): 37.67 u/L | ALBUMIN (120 h, time 5 day): 4.67 G/DL | ALKALINE PHOSPHATASE (120 h, time 5 day): 328 u/L | ASPARTATE AMINOTRANSFERASE (120 h, time 5 day): 72 u/L | BLOOD UREA NITROGEN (120 h, time 5 day): 17.33 mg/dL | CARBON DIOXIDE (120 h, time 5 day): 32.33 mmol/L | CHLORIDE (120 h, time 5 day): 100 MEQ/L | CHOLESTEROL (120 h, time 5 day): 93.67 mg/dL | CREATINE PHOSPHOKINASE (120 h, time 5 day): 263 u/L | CREATININE (120 h, time 5 day): 0.21 mg/dL | LACTATE DEHYDROGENASE (120 h, time 5 day): 145 u/L | LIPASE (120 h, time 5 day): 9.33 u/L | PHOSPHORUS (120 h, time 5 day): 12.6 mg/dL | POTASSIUM (120 h, time 5 day): 8.49 MEQ/L | SODIUM (120 h, time 5 day): 144.5 MEQ/L | TOTAL BILIRUBIN (120 h, time 5 day): 0.23 mg/dL | TOTAL PROTEIN (120 h, time 5 day): 6.77 G/DL | URIC ACID (120 h, time 5 day): 1.6 mg/dL

Source: ChEMBL document CHEMBL3885881, “DrugMatrix”
